Experiment [1] addresses T1, kappa opioid receptors (Mus musculus, UniProt P33534).
T1 construct: from tissue; host or cells: living ICR-CD1 mice (central nervous system, i.c.v. dosing)
Nature of the experiment: Tail-flick assay, antagonism of analgesia produced by selective kappa opioid agonists (U50488H, Bremazocine, U69593). Type of experiment: in vivo, ICR-CD1 mice. To be noted: mice, i.c.v.; for antagonism of the analgesia produced by selective kappa opioid agonists (% MPE): agonists U50488H, Bremazocine, U69593. As for the experimental part: (§1) The testing protocol involved the tail-flick assay. For the measurement of the tail-flick latency, ICR-CD1 mice, mice were held gently in one hand with the tail positioned in the apparatus (Tail Flick Analgesia Meter, Columbus Instruments, Columbus, Ohio) for radiant heat stimulus. The tail-flick response was elicited by applying radiant heat to the dorsal side of the tail. The intensity of the heat was set so that the mouse flicks its tail within 2 to 3 seconds. The test latency was measured before treatment of the agonist control, and again after the antagonist treatment at the time of peak agonist activity.
(§2) At least three groups of four to ten mice were used for each dose response curve. ED50 values with 95% confidence intervals (C.I.) were computed with GraphPad Prism 4 using nonlinear regression methods. […] Antinociception was quantified as the percent maximal possible effect (% MPE), which is calculated as: % MPE=(Test−Control/10−Control)×100. GNTI.2HCl or GNTI.2LA. The data for the dihydrochloride salt (Sigma GNTI2HCl) and the di-lipoic acid salt, GNTI.2LA (identified as WY-120) are shown in FIGS. 1 and 2. The data are expressed as bar graphs that indicate the % maximum possible effect (% MPE) of GNTI-.2HCl or GNTI.2LA in antagonizing the analgesia produced by selective kappa opioid agonists (U50488H, Bremazocine, U69593) or delta opioid agonists (DPDPE, DEL II) by the intracerebroventricular (i.c.v.) route of administration to mice.
(In hot-plate and tail-flick tests a longer latency is read as antinociception.)

For experiment [2], the target named is T2, (Mus musculus, UniProt P32300).
T2 construct: by the intracerebroventricular (i.c.v.) route of administration to mice; from tissue; host or cells: living ICR-CD1 mice (central nervous system, i.c.v. dosing)
Nature of the experiment: Tail-flick assay, antagonism of analgesia produced by delta opioid agonists (DPDPE, DEL II). The experiment is classed as in vivo, ICR-CD1 mice. To be noted: mice, i.c.v. As for the experimental part: as §1
as §2, with “The data for the dihydrochloride salt (Sigma GNTI2HCl) and the di-lipoic acid salt, GNTI.2LA (identified as WY-120) are shown in FIGS. 1 and 2.” left out

The test system of experiment [3] is insulin sensitivity. To be noted: 20 patients with type 2 diabetes, intravenous infusion for ten days, measured 24 hours after the last infusion; cited from earlier work.
The subject of experiment [4] is insulin-stimulated glucose disposal. To be noted: 13 patients with type 2 diabetes, single intravenous infusion; cited from earlier work.
Experiment [5] relates to insulin sensitivity. To be noted: 72 patients with type 2 diabetes, oral administration, after four weeks of treatment; cited from earlier work.

T1 sequence (P33534 whole entry): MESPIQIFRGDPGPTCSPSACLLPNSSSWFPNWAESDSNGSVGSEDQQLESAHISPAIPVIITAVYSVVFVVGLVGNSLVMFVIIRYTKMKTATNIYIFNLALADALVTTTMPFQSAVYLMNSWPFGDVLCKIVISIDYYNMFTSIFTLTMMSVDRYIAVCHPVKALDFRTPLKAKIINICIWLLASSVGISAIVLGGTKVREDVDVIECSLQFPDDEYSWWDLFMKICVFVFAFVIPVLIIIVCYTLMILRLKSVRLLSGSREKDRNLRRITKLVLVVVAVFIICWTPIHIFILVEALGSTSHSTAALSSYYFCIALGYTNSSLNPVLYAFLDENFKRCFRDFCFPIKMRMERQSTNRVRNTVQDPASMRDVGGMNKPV
T2 sequence (P32300 whole entry): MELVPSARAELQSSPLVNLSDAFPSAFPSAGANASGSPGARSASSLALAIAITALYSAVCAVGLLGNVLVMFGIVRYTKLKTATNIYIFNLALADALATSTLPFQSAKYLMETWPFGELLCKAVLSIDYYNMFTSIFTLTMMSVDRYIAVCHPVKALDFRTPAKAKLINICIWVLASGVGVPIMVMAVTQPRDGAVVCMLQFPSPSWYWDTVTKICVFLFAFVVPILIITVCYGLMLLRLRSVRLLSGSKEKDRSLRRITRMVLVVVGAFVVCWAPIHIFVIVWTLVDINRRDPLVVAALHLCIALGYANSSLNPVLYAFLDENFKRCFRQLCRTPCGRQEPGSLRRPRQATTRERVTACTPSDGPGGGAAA

On to `Cl.Cl.NC(N)=Nc1ccc2[nH]c3c(c2c1)C[C@@]1(O)[C@H]2Cc4ccc(O)c5c4[C@@]1(CCN2CC1CC1)[C@H]3O5` [GNTI.2HCI], for which the “antagonism of the analgesia produced by selective kappa opioid agonists (% MPE)” value in experiment [1] was “selectively antagonize the different kappa agonists”. Further, in experiment [2], the “antagonism of the analgesia produced by delta opioid agonists (% MPE)” value is “not significantly affected”.

`N=C(N)Nc1ccc2[nH]c3c(c2c1)C[C@@]1(O)C2Cc4ccc(O)c5c4[C@@]1(CCN2CC1CC1)[C@H]3O5` [GNTI.2LA, GNTI Dilipoate]: the “kappa opioid antagonist selectivity compared with GNTI.2HCl” value in experiment [1] (kappa versus delta agonists) is reported as “not significantly different”. In addition, in experiment [1], the “antagonism of the analgesia produced by selective kappa opioid agonists (% MPE)” value is listed as “selectively antagonize the different kappa agonists”. In addition, the “antagonism of the analgesia produced by delta opioid agonists (% MPE)” value in experiment [2] was “not significantly affected”.

`O=C(O)CCCCC1CCSS1` (centres unmarked) [LA, 1,2-dithiolane-3-pentanoic acid]: in experiment [3], the insulin sensitivity entry is listed as “improved insulin sensitivity”. In addition, the “improvement of insulin-stimulated glucose disposal compared to a placebo infusion” value in experiment [4] is recorded as 50%. The “improvement of insulin sensitivity” value in experiment [5] was 25%.

(Values after patent publication US10034871B2, “Salts and compositions useful for treating disease” (REGENTS OF THE UNIVERSITY OF MINNESOTA, priority 2014, dated 2018).)
